Measured values: patent publication US5654411A, “Process for preparing 4-deoxyerythromycin derivatives” (Abbott Laboratories, priority 1995, dated 1997)
≈ marks a conversion by molar mass, not a printed value.

Legend:
[1] = test system: Pseudomonas aeruginosa BMH10; assay: Antibacterial activity (MIC), agar dilution method; assay type: cell-based; conditions: unit assumed
Procedure: (§1) Compounds of the invention were next tested for antibacterial potency, such activity being regarded as an undesirable side effect if prokinetic therapy. Assays were conducted using methodology well-known in the art (the agar dilution method).

[2] = test system: Pseudomonas aeruginosa K799/61; assay: Antibacterial activity (MIC), agar dilution method; assay type: cell-based; conditions: unit assumed
Procedure: as §1

[3] = test system: Micrococcus luteus ATCC 9341; assay: Antibacterial activity (MIC), agar dilution method; assay type: cell-based; conditions: unit assumed
Procedure: as §1

Pseudomonas cepacia 2961 = assay: Antibacterial activity (MIC), agar dilution method; assay type: cell-based; conditions: unit assumed
Procedure: as §1

Escherichia coli JUHL = assay: Antibacterial activity (MIC), agar dilution method; assay type: cell-based; conditions: unit assumed
Procedure: as §1

[4] = test system: Staphylococcus aureus CMX 553; assay: Antibacterial activity (MIC), agar dilution method; assay type: cell-based; conditions: unit assumed
Procedure: as §1

[5] = test system: Pseudomonas aeruginosa K799/WT; assay: Antibacterial activity (MIC), agar dilution method; assay type: cell-based; conditions: unit assumed
Procedure: as §1

[6] = test system: Staphylococcus aureus 642A; assay: Antibacterial activity (MIC), agar dilution method; assay type: cell-based; conditions: unit assumed
Procedure: as §1

[7] = test system: Enterococcus faecium ATCC 8043; assay: Antibacterial activity (MIC), agar dilution method; assay type: cell-based; conditions: unit assumed
Procedure: as §1

[8] = test system: Staphylococcus aureus NCTC 10649; assay: Antibacterial activity (MIC), agar dilution method; assay type: cell-based; conditions: unit assumed
Procedure: as §1

[9] = test system: Streptococcus agalactiae CMX 508; assay: Antibacterial activity (MIC), agar dilution method; assay type: cell-based; conditions: unit assumed
Procedure: as §1

[10] = test system: Staphylococcus aureus A5177; assay: Antibacterial activity (MIC), agar dilution method; assay type: cell-based; conditions: unit assumed
Procedure: as §1

[11] = test system: Providencia stuartii CMX 640; assay: Antibacterial activity (MIC), agar dilution method; assay type: cell-based; conditions: unit assumed
Procedure: as §1

[12] = test system: Micrococcus luteus ATCC 4698; assay: Antibacterial activity (MIC), agar dilution method; assay type: cell-based; conditions: unit assumed
Procedure: as §1

[13] = test system: Streptococcus bovis A5169; assay: Antibacterial activity (MIC), agar dilution method; assay type: cell-based; conditions: unit assumed
Procedure: as §1

[14] = test system: Staphylococcus aureus 1775; assay: Antibacterial activity (MIC), agar dilution method; assay type: cell-based; conditions: unit assumed
Procedure: as §1

[15] = test system: Staphylococcus aureus ATCC 6538P; assay: Antibacterial activity (MIC), agar dilution method; assay type: cell-based; conditions: unit assumed
Procedure: as §1

[16] = test system: Streptococcus pyogenes 930 CONST; assay: Antibacterial activity (MIC), agar dilution method; assay type: cell-based; conditions: unit assumed
Procedure: as §1

[17] = test system: Streptococcus pyogenes EES61; assay: Antibacterial activity (MIC), agar dilution method; assay type: cell-based; conditions: unit assumed
Procedure: as §1

[18] = test system: Pseudomonas aeruginosa DPHD-5263; assay: Antibacterial activity (MIC), agar dilution method; assay type: cell-based; conditions: unit assumed
Procedure: as §1

Escherichia coli H560 = assay: Antibacterial activity (MIC), agar dilution method; assay type: cell-based; conditions: unit assumed
Procedure: as §1

[19] = test system: Enterobacter aerogenes ATCC 13048; assay: Antibacterial activity (MIC), agar dilution method; assay type: cell-based; conditions: unit assumed
Procedure: as §1

[20] = test system: Streptococcus pyogenes 2548 INDUC; assay: Antibacterial activity (MIC), agar dilution method; assay type: cell-based; conditions: unit assumed
Procedure: as §1

[21] = test system: Pseudomonas aeruginosa A5007; assay: Antibacterial activity (MIC), agar dilution method; assay type: cell-based; conditions: unit assumed
Procedure: as §1

Escherichia coli DC-2 = assay: Antibacterial activity (MIC), agar dilution method; assay type: cell-based; conditions: unit assumed
Procedure: as §1

[22] = test system: Staphylococcus epidermidis 3519; assay: Antibacterial activity (MIC), agar dilution method; assay type: cell-based; conditions: unit assumed
Procedure: as §1

[23] = test system: Pseudomonas aeruginosa DPHD-2862; assay: Antibacterial activity (MIC), agar dilution method; assay type: cell-based; conditions: unit assumed
Procedure: as §1

Escherichia coli KNK 437 = assay: Antibacterial activity (MIC), agar dilution method; assay type: cell-based; conditions: unit assumed
Procedure: as §1

[24] = test system: Klebsiella pneumoniae ATCC 8045; assay: Antibacterial activity (MIC), agar dilution method; assay type: cell-based; conditions: unit assumed
Procedure: as §1

[25] = test system: Acinetobacter calcoaceticus CMX 669; assay: Antibacterial activity (MIC), agar dilution method; assay type: cell-based; conditions: unit assumed
Procedure: as §1

Escherichia coli SS = assay: Antibacterial activity (MIC), agar dilution method; assay type: cell-based; conditions: unit assumed
Procedure: as §1

[26] = test system: Staphylococcus aureus A-5278; assay: Antibacterial activity (MIC), agar dilution method; assay type: cell-based; conditions: unit assumed
Procedure: as §1

[27] = test system: smooth muscle strips isolated from rabbit small intestine; assay: Induction of in vitro rabbit duodenal smooth muscle contraction; conditions: for EC50: Oryctolagus cuniculus, rabbit duodenum longitudinal muscle, 37° C., pH 7.5, read-out: pED50 (negative logarithm of the concentration producing half of the maximal contraction) (converted); for Relative Potency: relative to erythromycin A = 1.0
Procedure: The compounds of the present invention were tested in vitro for their ability to induce contraction of smooth muscle strips isolated from rabbit small intestine using the following procedure:
Rabbits were sacrificed and 15 cm of duodenum was rapidly removed and placed in ice-cold modified Ringers solution (120 mM sodium chloride, 25 mM sodium bicarbonate, 4.7 mM potassium chloride, 1.25 mM calcium chloride, 1.20 mM magnesium sulfate and 5.6 mM glucose). The longitudinal muscle layer was separated from the circular muscle by blunt dissection and cut into strips of 10×20 mm. Double-folded strips were vertically suspended between two hooks in 10 mL tissue baths with a mechanical preload of 1 g. The upper hook was connected to an […] force transducer, and its displacement was recorded on a Grass polygraph. The tissue baths contained modified Ringers solution at 37° C. and were continuously gassed with 95% oxygen/5% carbon dioxide in order to maintain the pH at 7.5.
After a stabilization period of at least 60 minutes, a contractility dose-response series was performed by adding increasing final concentrations of methacholine (10^-7 M, 10^-6 M and 10^-5 M) in volumes of 100 μL. The bath solutions were replaced at least three times between doses.
After the methacholine dose-response series was completed, a test compound dose response curve was initiated by the same procedure used for the methacholine dose-response series, with at least five concentrations of test compound within the range of 10^-10 M to 10^-4 M. The tissues were washed repeatedly between doses, and the studies were completed by recording the contractile response to 10^-5 M methacholine to ascertain integrity of the muscle preparation. Contractile responses were expressed as percent of maximal contraction. The concentration of test compound which produces half of the maximal contraction (ED50 value) and the negative logarithm of the ED50 value (PED50) were estimated from the dose-response curves.

Compound	MIC [1] [mg/L]	MIC [2] [mg/L]	MIC [3] [mg/L]	MIC (Pseudomonas cepacia 2961) [mg/L]	MIC (Escherichia coli JUHL) [mg/L]	MIC [4] [mg/L]	MIC [5] [mg/L]	MIC [6] [mg/L]	MIC [7] [mg/L]	MIC [8] [mg/L]	MIC [9] [mg/L]	MIC [10] [mg/L]	MIC [11] [mg/L]	MIC [12] [mg/L]	MIC [13] [mg/L]	MIC [14] [mg/L]	MIC [15] [mg/L]	MIC [16] [mg/L]	MIC [17] [mg/L]	MIC [18] [mg/L]	also measured
CC[C@H]1OC(=O)[C@H](C)[C@@H](O[C@H]2C[C@@](C)(OC)C[C@H](C)O2)[C@H](C)[C@@H](O[C@@H]2O[C@H](C)C[C@H](N(C)CC)[C@H]2O)[C@@]2(C)C[C@H](C)C(O2)[C@H](C)[C@@H](O)[C@]1(C)O [Example 11, 9-deoxo-3'-N-desmethyl-4",6-dideoxy-8-epi-3'-N-ethyl-6,9-epoxyerythromycin A]	> 100	> 100	25 (≈ 34.9 µM)	> 100	> 100	> 100	> 100	> 100	50 (≈ 69.8 µM)	100 (≈ 140 µM)	6.2 (≈ 8.66 µM)	100 (≈ 140 µM)	> 100	25 (≈ 34.9 µM)	50 (≈ 69.8 µM)	> 100	> 100	100 (≈ 140 µM)	25 (≈ 34.9 µM)	> 100	MIC (Escherichia coli H560): > 100 mg/L; MIC [19]: > 100 mg/L; MIC [20]: 50 mg/L (≈ 69.8 µM); MIC [21]: > 100 mg/L; MIC (Escherichia coli DC-2): > 100 mg/L; MIC [22]: 100 mg/L (≈ 140 µM); MIC [23]: > 100 mg/L; MIC (Escherichia coli KNK 437): > 100 mg/L; MIC [24]: > 100 mg/L; MIC [25]: > 100 mg/L; MIC (Escherichia coli SS): > 100 mg/L; MIC [26]: > 100 mg/L; EC50 [27]: 0.00288 µM; Relative Potency [27]: 490
CC[C@H]1OC(=O)[C@H](C)[C@@H](O[C@H]2C[C@@](C)(OC)C[C@H](C)O2)[C@H](C)[C@@H](O[C@@H]2O[C@H](C)C[C@H](N(C)CC)[C@H]2O)[C@@]2(C)C[C@@H](C)C(O2)[C@H](C)[C@@H](O)[C@]1(C)O [Example 15, 9-deoxo-3'-N-desmethyl-4",6-dideoxy-6,9-epoxy-3'-N-ethylerythromycin A]	> 100	> 100	25 (≈ 34.9 µM)	> 100	> 100	> 100	> 100	> 100	50 (≈ 69.8 µM)	> 100	6.2 (≈ 8.66 µM)	> 100	> 100	25 (≈ 34.9 µM)	6.2 (≈ 8.66 µM)	> 100	100 (≈ 140 µM)	> 100	25 (≈ 34.9 µM)	> 100	MIC (Escherichia coli H560): > 100 mg/L; MIC [19]: > 100 mg/L; MIC [20]: 50 mg/L (≈ 69.8 µM); MIC [21]: > 100 mg/L; MIC (Escherichia coli DC-2): > 100 mg/L; MIC [22]: 100 mg/L (≈ 140 µM); MIC [23]: > 100 mg/L; MIC (Escherichia coli KNK 437): > 100 mg/L; MIC [24]: > 100 mg/L; MIC [25]: > 100 mg/L; MIC (Escherichia coli SS): 100 mg/L (≈ 140 µM); MIC [26]: > 100 mg/L; EC50 [27]: 0.0234 µM; Relative Potency [27]: 60
